Experimental data reported in paper PMC5152921, “Evolutionary and Functional Diversification of the Vitamin D Receptor-Lithocholic Acid Partnership” (PLoS ONE, 2016).

Assays:
[1] = molecular target: all VDR orthologs/paralogs tested; test: Competitive ligand binding assays, all receptors together; settings: range over all eight VDR orthologs/paralogs
Description: Recombinant VDR and human RXRWT lysates were prepared from transfected COS7 cells (American Type Culture Collection #CRL-1651) as described in detail previously [32, 33]. Lysates were diluted 10-fold in ice-cold assay buffer (10 mM Tris HCl, 150 mM KCl, 1 mM EDTA, 0.3 mM ZnCl2, 5 mM DTT, and 1x protease inhibitor cocktail (100 μM AEBSF, 80 nM aprotinin, 5 μM bestatin, 1.5 μM E-64 (for cysteine proteases), 2 μM leupeptin, 1 μM pepstatin A), pH 7.5). […] Reactions were shaken to mix and incubated for 18 hours at 4°C. Bound and free ligand were separated with the addition of 80 μL of ice-cold separation buffer (2.5% (w/v) activated charcoal, 0.5% (w/v) dextran, 100 mM Na2HPO4, 39 mM NaH2PO4, 150 mM NaCl, 15 mM NaN3, 10% gelatin, pH 7.0), and incubated at 4°C for 15 minutes with shaking every 5 minutes. Reactions were centrifuged at 5,000 x g for 5 minutes at 4°C, and 200 μL of the supernatant containing the VDR-bound ligands was removed for scintillation counting.
Total binding was determined using lysate from cells transfected with VDR, and nonspecific binding was determined using lysate from cells transfected with the empty pSG5 vector. Specific binding was determined by subtracting non-specific binding counts from the total binding counts.

[2] = molecular target: T1, Zebrafish VDRα (Danio rerio, UniProt Q9PTN2); test: Transient transactivation assay (XREM-Luc, HepG2); format: cell-based; settings: 100 μM LCA
T1 construct: 89.7 ng/well of full-length pSG5-VDR was co-transfected; expressed in transfected cells; host or cells: HepG2
T1 sequence (Q9PTN2 1-453): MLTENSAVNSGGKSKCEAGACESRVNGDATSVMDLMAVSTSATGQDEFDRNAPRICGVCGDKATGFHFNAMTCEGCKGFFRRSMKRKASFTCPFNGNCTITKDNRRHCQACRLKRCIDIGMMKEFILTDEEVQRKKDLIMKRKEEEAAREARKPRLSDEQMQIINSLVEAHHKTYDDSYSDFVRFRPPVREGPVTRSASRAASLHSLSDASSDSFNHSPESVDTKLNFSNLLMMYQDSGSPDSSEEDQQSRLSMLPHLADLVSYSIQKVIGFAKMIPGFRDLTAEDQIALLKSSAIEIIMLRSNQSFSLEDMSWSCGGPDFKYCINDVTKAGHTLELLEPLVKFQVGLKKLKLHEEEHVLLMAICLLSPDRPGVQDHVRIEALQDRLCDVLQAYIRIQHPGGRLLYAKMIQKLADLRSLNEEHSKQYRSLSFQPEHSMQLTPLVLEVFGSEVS
Description: (§1) HepG2 cells (American Type Culture Collection #HB-8065) were cultured in T75 flasks with vented caps (Corning Life Sciences, Corning, NY) using Minimum Essential Medium (MEM) with phenol red supplemented with 10% fetal bovine serum, 1 mM sodium pyruvate, and 1X MEM non-essential amino acids. Cells were maintained following standard protocols in a 5% CO2 incubator set at 37°C, and split when 80–90% confluent.
(§2) For the transient transactivation assays, HepG2 cells were seeded in 96-well tissue culture plates at a density of 2.5x10^4 cells per well in complete phenol red-free MEM, and allowed to recover overnight. Transfections were performed the following day using Lipofectamine 2000 (Life Technologies, Grand Island, NY) as described previously. For functional comparisons, 89.7 ng/well of full-length pSG5-VDR was co-transfected with 19.2 ng/well human XREM-Luc reporter and 4.5 ng/well of pRL-CMV as an internal luciferase control. Coregulator studies included the addition of 18.3 ng/well of human coregulators (pCDNA-RXRWT, pCDNA-RXRAF2, pSG5-SRC1, pSG5-GRIP1 or pSG5-ACTR) where indicated. […] Controls include 120 nM 1,25D3 as a positive control, and ethanol as a vehicle control. Twenty-four hours post-exposure cells were tested for luciferase activity using the Dual-Glo Luciferase Assay System (Promega Corporation, Madison, WI) according to the manufacturer’s protocols. Luciferase data were first normalized to the pRL-CMV internal luciferase control. LCA-mediated VDR transactivation (fold activation) was calculated as the ratio of the VDR luciferase response relative to the empty vector control. To calculate the impact of coregulators on VDR transactivation, VDR response in the presence of coregulators was normalized to VDR alone. All experiments were repeated 3 times and conducted as groups of 4 replicate wells. VDR response in the absence of coregulators was analyzed using a 1-way ANOVA followed by Dunnett’s multiple comparisons test. To examine the effects of different coregulators on VDR activation, data were analyzed using a 2-way ANOVA followed by Bonferroni’s multiple comparisons test in GraphPad Prism (GraphPad Inc, San Diego, CA).

[3] = molecular target: Medaka VDRα (Oryzias latipes, UniProt B2CCA0); test: Transient transactivation assay (XREM-Luc, HepG2); format: cell-based; settings: 100 μM LCA
Description: as §1, §2

[4] = molecular target: T2, Medaka VDRβ (Oryzias latipes, UniProt B2CCA1); test: Transient transactivation assay (XREM-Luc, HepG2); format: cell-based; settings: 100 μM LCA
T2 sequence (B2CCA1 1-425): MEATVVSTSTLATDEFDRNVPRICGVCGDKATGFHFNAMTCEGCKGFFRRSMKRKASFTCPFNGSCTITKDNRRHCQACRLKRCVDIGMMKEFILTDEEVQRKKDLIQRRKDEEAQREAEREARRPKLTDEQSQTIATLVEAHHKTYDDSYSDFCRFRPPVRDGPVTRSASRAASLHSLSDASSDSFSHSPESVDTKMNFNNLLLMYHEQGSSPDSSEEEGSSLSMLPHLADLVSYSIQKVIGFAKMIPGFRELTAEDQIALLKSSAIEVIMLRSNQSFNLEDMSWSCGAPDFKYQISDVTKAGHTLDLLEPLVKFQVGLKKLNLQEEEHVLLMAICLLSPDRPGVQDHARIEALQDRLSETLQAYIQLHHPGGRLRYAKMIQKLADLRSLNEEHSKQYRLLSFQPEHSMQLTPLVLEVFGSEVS
T2 sequence (P19793 1-462 partner): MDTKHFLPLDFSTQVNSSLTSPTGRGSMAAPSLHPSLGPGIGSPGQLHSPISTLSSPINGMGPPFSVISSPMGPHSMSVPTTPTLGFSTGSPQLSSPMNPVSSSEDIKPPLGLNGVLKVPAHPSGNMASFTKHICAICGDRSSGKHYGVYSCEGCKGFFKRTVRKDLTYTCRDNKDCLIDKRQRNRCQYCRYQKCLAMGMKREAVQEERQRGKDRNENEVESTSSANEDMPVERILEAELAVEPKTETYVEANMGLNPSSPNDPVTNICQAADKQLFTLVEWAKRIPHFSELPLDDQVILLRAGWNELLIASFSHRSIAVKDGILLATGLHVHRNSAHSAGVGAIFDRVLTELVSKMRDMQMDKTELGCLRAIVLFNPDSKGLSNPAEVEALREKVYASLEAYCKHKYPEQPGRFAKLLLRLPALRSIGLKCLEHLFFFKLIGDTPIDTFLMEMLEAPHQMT
Description: as §1, §2

[5] = co-transfected human RXRWT, vs VDR alone
[6] = compared to either coregulator individually

Medaka VDRα, sequence (B2CCA0 entry or part of it, one chain of several): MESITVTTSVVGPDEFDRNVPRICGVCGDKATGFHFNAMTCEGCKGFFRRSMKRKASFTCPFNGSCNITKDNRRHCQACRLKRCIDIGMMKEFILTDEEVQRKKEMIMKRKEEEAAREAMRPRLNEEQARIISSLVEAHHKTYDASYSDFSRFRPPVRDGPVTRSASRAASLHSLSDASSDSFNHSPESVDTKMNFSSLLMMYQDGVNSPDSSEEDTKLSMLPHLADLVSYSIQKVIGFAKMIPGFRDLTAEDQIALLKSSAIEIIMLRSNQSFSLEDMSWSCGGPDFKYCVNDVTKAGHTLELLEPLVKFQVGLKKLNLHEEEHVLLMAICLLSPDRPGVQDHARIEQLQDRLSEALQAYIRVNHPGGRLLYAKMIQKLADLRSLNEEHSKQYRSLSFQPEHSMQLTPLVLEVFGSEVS

SMILES: C[C@H](CCC(=O)O)[C@H]1CC[C@H]2[C@@H]3CC[C@@H]4C[C@H](O)CC[C@]4(C)[C@H]3CC[C@]12C [LCA, 5β-cholanic acid-3α-ol]
- Ki [1]: 4.2 to 9.5 µM
- Effect of exogenous human RXRWT on VDR transactivation [2, 5]: significantly enhanced transactivation
- Effect of RXRWT+SRC1 or RXRWT+GRIP1 on VDR transactivation [2, 6]: significantly enhanced VDR transactivation
- Effect of exogenous human RXRWT on VDR transactivation [3, 5]: significantly enhanced transactivation
- Effect of RXRWT+SRC1 or RXRWT+GRIP1 on VDR transactivation [3, 6]: significantly enhanced VDR transactivation
- Effect of exogenous human RXRWT on VDR transactivation [4, 5]: significantly enhanced transactivation
- Effect of RXRWT+SRC1 or RXRWT+GRIP1 on VDR transactivation [4, 6]: significantly enhanced VDR transactivation
